Values quoted from earlier work in patent US20080286234A1, “Method for treating demyelinating diseases” (priority 2007, published 2008).

Conditions: MS patients; for reduction in the rate of MS relapses / decrease in relapse rate: vs. placebo

Substance	slowed the progression of disability (as measured by EDSS) [%]	reduction in the rate of MS relapses / decrease in relapse rate	effect on exacerbations in clinical trials (clinical trials)	effect on new, gadolinium-enhanced brain lesions on MRI scans (clinical trials)
natalizumab: monoclonal antibody against integrin-(4 used to treat multiple sclerosis and Crohn's disease	42	67%		
glatiramer acetate		30-35%	reduce the number and severity of exacerbations	reduce the number of new, gadolinium-enhanced brain lesions
